Patent publication US8614209B2, “Amido-thiophene compounds and their use” (The University of Edinburgh, priority 2008, dated 2013)

Biological target: T1, human 11β-HSD2 (Homo sapiens, UniProt P80365)
T1 construct: CHO cells stably transfected with the full-length gene coding for human 11β-HSD2 were used; expressed in transfected cells; host or cells: CHO
T1 sequence (P80365 1-405): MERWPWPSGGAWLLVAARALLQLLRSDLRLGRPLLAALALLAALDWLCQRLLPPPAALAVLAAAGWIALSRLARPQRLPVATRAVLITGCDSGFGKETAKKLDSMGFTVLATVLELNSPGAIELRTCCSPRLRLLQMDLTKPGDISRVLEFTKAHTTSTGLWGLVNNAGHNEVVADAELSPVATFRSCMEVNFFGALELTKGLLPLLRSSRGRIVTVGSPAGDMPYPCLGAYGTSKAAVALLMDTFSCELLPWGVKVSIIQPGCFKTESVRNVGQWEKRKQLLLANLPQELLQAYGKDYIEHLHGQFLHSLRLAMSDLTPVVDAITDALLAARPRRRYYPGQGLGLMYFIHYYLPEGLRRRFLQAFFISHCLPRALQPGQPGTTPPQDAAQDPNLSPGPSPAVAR
Experiment: Cellular in vitro 11β-HSD2 enzyme inhibition assay (CHO cells, TLC/phosphoimager)
Type: cell-based
Conditions: CHO cells stably transfected with human 11β-HSD2; Table 1
Procedure: Cellular In Vitro 11β-HSD2 Enzyme Inhibition Assay
For measurement of inhibition of 11β-HSD2, CHO cells stably transfected with the full-length gene coding for human 11β-HSD2 were used. Assays were carried out in 96-well microplates containing 1×10^5 cells/well. Controls and compounds were plated as above, so that the final DMSO concentration in each well was 1%.
The assay solutions were transferred to glass tubes and 20 μL ethyl acetate added to each tube. Each tube was vortexed thoroughly and the upper layer containing the tritiated steroid transferred to a fresh glass tube. The solvent was evaporated by placing the tubes in a heating block at 65° C. under a stream of Nitrogen gas. 20 μL ethanol was added to each of the dried samples and vortexed briefly. Each sample was applied to a silica TLC plate and the plate dried. The plate was placed vertically in a glass tank containing 92% chloroform:8% ethanol and the solvent allowed to rise up the plate. The plate was dried, placed in an imaging cassette, and overlayed with a tritium imaging plate for 1-2 days. The amount of enzyme inhibition in each sample was determined by measuring the intensity of the substrate and product spots using a phosphoimager.
IC50 values for inhibitors were determined as described for 118-HSD1.

IC50, > 10 µM:
CC1(C)CC2CC(C)(CN2C(=O)c2csc(-c3ccncc3)c2)C1 (centres unmarked) [GG-01]
CC1(C)CC2CC(C)(CN2C(=O)c2cc(-c3ccccc3)sc2Cl)C1 (centres unmarked) [CC-02]
O=C(c1cc(-c2ccccn2)sc1Cl)N1CCCCCC1 [EE-12]
O=C(c1cc(-c2ccccc2)sc1Cl)N1CCCCC1 [AA-30]
O=C(c1csc(-n2ccnc2)c1)N1CCCC2CCCCC21 (centres unmarked) [FF-06, (5-Imidazol-1-yl-thiophen-3-yl)-(octahydro-quinolin-1-yl)-methanone]
